Consider 3 compounds from ChEMBL document CHEMBL5291721, “A preclinical secondary pharmacology resource illuminates target-adverse drug reaction associations of marketed drugs” (Nat Commun, 2023).

Usually AC50 stands for the concentration giving half of the maximal activity seen.

The target of data set [1] is T1, Alpha-1A adrenergic receptor (Homo sapiens, UniProt P35348).
T1 sequence (P35348 whole entry): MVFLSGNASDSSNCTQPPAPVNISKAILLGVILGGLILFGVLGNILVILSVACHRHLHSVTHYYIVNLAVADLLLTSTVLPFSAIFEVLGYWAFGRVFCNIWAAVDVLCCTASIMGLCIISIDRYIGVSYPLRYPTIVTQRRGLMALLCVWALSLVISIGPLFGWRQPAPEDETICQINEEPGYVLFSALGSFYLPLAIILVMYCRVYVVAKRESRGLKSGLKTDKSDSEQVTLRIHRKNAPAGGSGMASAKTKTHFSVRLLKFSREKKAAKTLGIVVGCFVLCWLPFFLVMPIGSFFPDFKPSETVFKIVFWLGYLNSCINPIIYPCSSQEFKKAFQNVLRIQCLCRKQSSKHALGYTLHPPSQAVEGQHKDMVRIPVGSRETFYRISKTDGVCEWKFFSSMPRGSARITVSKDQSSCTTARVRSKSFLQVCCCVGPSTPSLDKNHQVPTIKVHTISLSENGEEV
Format: functional, cell-based.

In data set [2] the target is T1, Alpha-1A adrenergic receptor. Format: functional, cell-based. This is another data set of the same source.
Data set [3] addresses T2, Alpha-2A adrenergic receptor (Homo sapiens, UniProt P08913).
T2 sequence (P08913 whole entry): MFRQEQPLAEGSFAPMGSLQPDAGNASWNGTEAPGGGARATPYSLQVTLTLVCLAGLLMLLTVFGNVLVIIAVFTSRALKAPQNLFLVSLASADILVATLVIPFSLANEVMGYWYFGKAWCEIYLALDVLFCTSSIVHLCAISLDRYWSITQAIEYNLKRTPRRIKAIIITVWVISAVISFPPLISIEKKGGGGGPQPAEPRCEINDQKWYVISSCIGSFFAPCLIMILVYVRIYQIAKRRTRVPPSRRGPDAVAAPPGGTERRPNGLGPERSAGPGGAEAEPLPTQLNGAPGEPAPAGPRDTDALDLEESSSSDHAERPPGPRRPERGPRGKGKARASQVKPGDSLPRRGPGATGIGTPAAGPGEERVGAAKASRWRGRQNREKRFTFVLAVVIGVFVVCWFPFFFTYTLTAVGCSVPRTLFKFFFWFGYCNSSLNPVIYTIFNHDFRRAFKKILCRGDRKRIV

For a further data set, the target named is Prothrombin (Homo sapiens, UniProt P00734). Type of data set: functional.
The target of data set [4] is 5-hydroxytryptamine receptor 2B (Homo sapiens, UniProt P41595). Type of data set: functional, cell-based.
The target in data set [5] is Voltage-gated inwardly rectifying potassium channel KCNH2 (Homo sapiens, UniProt Q12809). Format: functional.
A further data set deals with T3, Progesterone receptor (Homo sapiens, UniProt P06401).
T3 sequence (P06401 whole entry): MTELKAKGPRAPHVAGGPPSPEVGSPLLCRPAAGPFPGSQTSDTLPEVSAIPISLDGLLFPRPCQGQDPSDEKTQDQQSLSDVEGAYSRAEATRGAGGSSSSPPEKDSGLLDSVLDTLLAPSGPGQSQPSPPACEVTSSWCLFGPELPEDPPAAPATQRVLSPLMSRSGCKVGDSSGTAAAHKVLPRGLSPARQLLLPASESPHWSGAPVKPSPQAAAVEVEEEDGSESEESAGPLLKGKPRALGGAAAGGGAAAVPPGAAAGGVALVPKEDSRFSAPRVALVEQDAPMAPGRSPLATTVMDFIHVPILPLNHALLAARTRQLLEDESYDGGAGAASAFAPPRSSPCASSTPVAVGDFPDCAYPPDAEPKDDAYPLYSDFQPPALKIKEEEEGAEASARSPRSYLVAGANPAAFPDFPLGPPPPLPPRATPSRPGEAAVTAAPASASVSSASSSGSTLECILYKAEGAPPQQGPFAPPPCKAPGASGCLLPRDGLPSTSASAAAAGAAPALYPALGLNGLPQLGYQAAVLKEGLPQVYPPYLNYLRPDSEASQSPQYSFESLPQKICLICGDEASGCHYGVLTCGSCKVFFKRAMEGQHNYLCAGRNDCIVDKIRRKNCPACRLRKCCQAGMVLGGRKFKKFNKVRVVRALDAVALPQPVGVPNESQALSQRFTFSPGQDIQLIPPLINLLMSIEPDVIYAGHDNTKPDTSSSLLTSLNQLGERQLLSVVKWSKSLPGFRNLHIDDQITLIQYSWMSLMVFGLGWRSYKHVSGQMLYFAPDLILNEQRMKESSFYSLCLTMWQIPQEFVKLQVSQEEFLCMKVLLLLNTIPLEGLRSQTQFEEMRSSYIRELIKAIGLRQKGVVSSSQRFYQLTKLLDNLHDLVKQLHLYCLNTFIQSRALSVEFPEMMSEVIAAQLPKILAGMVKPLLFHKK

The target in data set [6] is Sodium-dependent dopamine transporter (Homo sapiens, UniProt Q01959).
The target of data set [7] is T4, Thromboxane A2 receptor (Homo sapiens, UniProt P21731).
T4 sequence (P21731 whole entry): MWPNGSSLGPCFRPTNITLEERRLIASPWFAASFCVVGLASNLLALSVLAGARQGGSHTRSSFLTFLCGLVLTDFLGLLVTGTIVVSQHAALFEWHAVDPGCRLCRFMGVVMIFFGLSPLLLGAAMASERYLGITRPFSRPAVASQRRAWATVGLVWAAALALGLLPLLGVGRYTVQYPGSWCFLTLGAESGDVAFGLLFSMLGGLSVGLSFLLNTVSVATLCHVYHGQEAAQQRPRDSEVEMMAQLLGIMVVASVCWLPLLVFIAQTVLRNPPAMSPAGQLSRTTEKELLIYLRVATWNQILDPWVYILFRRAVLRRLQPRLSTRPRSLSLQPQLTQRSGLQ
Format: functional, cell-based.

Data set [8] deals with T4, Thromboxane A2 receptor. Type of data set: functional, cell-based. This is another data set of the same source.
Note: assay procedure not described here.

Sequence of Voltage-gated inwardly rectifying potassium channel KCNH2 (Q12809 whole entry): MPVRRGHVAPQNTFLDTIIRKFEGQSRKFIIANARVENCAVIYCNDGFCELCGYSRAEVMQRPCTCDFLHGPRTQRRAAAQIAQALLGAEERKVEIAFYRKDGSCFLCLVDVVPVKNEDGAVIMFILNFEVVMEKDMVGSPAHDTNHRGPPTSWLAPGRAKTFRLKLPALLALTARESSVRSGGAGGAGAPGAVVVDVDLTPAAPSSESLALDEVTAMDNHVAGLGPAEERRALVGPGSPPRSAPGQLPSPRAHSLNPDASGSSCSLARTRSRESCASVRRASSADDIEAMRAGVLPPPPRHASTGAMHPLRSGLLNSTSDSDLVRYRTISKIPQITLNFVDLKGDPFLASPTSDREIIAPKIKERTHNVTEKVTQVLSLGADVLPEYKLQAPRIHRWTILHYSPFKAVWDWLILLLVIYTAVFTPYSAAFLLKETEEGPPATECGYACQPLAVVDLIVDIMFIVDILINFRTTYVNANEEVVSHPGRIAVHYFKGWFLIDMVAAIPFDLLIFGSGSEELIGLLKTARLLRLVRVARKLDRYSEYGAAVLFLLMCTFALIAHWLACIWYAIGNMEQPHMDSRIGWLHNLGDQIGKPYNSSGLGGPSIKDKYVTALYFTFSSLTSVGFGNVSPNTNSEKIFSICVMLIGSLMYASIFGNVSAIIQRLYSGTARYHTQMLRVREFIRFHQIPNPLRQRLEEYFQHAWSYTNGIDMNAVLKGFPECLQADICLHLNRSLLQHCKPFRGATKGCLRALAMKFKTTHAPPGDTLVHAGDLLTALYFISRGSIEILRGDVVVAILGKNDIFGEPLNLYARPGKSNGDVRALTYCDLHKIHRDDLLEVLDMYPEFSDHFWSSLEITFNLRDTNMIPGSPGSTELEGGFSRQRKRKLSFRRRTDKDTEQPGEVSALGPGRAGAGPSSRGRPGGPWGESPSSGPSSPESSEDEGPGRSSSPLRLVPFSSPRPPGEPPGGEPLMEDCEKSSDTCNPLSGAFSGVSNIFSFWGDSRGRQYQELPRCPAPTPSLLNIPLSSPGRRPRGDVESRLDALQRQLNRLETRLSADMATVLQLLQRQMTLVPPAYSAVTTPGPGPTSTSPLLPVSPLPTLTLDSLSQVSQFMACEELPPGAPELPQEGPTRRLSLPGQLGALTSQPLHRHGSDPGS
Sequence of 5-hydroxytryptamine receptor 2B (P41595 whole entry): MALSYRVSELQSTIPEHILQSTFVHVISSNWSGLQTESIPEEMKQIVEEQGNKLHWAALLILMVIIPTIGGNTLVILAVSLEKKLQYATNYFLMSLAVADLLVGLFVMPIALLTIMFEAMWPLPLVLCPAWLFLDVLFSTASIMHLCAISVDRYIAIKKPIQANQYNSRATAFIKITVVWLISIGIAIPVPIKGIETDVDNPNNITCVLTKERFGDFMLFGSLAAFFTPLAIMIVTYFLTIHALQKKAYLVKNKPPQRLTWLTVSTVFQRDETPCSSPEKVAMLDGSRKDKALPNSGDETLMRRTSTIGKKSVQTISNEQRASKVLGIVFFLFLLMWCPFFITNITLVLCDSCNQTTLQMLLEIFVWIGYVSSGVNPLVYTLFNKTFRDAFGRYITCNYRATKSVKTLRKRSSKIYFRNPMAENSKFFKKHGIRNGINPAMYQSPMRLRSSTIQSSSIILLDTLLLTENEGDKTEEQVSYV
Sequence of Sodium-dependent dopamine transporter (Q01959 whole entry): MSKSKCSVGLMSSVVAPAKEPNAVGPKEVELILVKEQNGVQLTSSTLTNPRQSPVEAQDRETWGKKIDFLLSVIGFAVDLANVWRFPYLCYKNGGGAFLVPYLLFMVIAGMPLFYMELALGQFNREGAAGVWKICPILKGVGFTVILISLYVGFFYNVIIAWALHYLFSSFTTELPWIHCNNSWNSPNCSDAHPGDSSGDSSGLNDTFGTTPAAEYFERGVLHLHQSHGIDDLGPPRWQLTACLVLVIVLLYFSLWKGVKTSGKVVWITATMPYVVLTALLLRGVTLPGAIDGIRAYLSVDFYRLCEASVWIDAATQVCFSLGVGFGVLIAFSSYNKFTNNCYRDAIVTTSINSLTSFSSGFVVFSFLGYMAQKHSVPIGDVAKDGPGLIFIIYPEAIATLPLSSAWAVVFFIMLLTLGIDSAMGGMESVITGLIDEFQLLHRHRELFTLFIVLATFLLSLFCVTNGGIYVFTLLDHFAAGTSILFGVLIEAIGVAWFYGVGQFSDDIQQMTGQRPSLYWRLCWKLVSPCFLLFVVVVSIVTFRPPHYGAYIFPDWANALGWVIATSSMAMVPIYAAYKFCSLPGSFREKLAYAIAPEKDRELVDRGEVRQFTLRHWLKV

Turning to `CN(C)c1ccc(C(=C2C=CC(=[N+](C)C)C=C2)c2ccc(N(C)C)cc2)cc1` [GENTIAN VIOLET], the AC50 in data set [1] was over 30 µM; in [2], 0.845 µM; in data set [3], 1.43 µM; at Prothrombin, 25.2 µM; in data set [4] it was over 30 µM; in [5] (read-out: AC50) it was 1 µM. Moreover, the AC50 is 1.67 µM on Progesterone receptor, 3.4 µM in data set [6], over 30 µM at Thromboxane A2 receptor [7] and 2.03 µM on Thromboxane A2 receptor [8].
Regarding `Nc1ccc(S(N)(=O)=O)cc1` [SULFANILAMIDE], the AC50 (in [1]; in [2]; in [3]; at Prothrombin; in [4]; on Progesterone receptor) was over 30 µM throughout. Moreover, the AC50 (in data set [6]; on Thromboxane A2 receptor [7]; on Thromboxane A2 receptor [8]) was over 30 µM in each case.
For HYDROXOCOBALAMIN, the AC50 in [5] (human, cellular components) was over 30 µM.
